Experimental data: publication PMC5013675, “Nucleotide binding by the widespread high-affinity cyclic di-GMP receptor MshEN domain” (Nature Communications, 2016)

Assays:
Format in all cases: binding
VcMshEN_N G11L = system: VcMshEN_N G11L
VcMshEN_N L25A/L29A = system: VcMshEN_N L25A/L29A
VcMshEN L10A-L54A-L58A = system: VcMshEN L10A-L54A-L58A
VcMshEN_N L25A = system: VcMshEN_N L25A
VcMshEN L10A/L58A = biological target: VcMshEN L10A/L58A
VcMshEN_N L10A = system: VcMshEN_N L10A
VcMshEN_N G40I = system: VcMshEN_N G40I
VcMshEN G11L = biological target: VcMshEN G11L
VcMshEN_N L54A/L58A = system: VcMshEN_N L54A/L58A
VcMshEN_N L10A/L54A/L58A = system: VcMshEN_N L10A/L54A/L58A

## Nc1nc2c(ncn2[C@@H]2O[C@@H]3CO[P@](=O)(O)O[C@H]4[C@@H](O)[C@H](n5cnc6c(=O)[nH]c(N)nc65)O[C@@H]4CO[P@](=O)(O)O[C@H]3[C@H]2O)c(=O)[nH]1 [c-di-GMP, Cyclic dimeric GMP]
VcMshEN_N G11L
  Melting temperature Tm, + c-di-GMP: 52 ºC
VcMshEN_N L25A/L29A
  Melting temperature Tm, + c-di-GMP: 59 ºC
  Tm Difference: 9 ºC
VcMshEN L10A-L54A-L58A
  c-di-GMP binding in vitro: abrogates the ability of VcMshEN to bind c-di-GMP
VcMshEN_N L25A
  Melting temperature Tm, + c-di-GMP: 60 ºC
VcMshEN L10A/L58A
  Dissociation constant (KD): cannot bind c-di-GMP
  Fold reduction of binding affinity: > 100
VcMshEN_N L10A
  Melting temperature Tm, + c-di-GMP: 56 ºC
VcMshEN_N G40I
  Melting temperature Tm, + c-di-GMP: 56 ºC
VcMshEN G11L
  Dissociation constant (KD): abrogated c-di-GMP binding
VcMshEN_N L54A/L58A
  Melting temperature Tm, + c-di-GMP: 54 ºC
VcMshEN_N L10A/L54A/L58A
  Melting temperature Tm, + c-di-GMP: 53 ºC
